What was measured:
[1] = molecular target: T1, 2-5A-dependent ribonuclease (Mus musculus) (UniProt Q05921); test: Relative displacement of [125I]-labeled 2-5A from Ribonuclease L of mouse liver compared to pApApA
T1 sequence (whole entry): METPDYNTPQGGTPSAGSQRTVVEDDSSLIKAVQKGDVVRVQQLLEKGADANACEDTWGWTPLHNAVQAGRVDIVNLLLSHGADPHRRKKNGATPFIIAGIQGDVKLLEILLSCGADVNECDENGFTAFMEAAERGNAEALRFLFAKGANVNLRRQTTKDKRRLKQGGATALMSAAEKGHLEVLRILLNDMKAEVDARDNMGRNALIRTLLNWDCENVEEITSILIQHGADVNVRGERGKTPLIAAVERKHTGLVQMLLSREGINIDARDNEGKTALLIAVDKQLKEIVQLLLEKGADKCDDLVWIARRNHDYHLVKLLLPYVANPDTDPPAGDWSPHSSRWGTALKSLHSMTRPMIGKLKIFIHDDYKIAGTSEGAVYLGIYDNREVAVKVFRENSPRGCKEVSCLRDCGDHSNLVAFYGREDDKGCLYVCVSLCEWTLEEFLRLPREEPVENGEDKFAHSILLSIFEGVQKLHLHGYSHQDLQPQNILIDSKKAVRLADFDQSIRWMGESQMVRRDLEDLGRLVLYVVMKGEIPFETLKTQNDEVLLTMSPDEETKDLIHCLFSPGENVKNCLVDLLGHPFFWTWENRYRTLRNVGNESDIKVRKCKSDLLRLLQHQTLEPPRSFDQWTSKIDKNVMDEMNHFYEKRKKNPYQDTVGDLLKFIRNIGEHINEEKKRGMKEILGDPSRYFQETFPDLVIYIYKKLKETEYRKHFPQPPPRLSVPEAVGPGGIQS

[2] = molecular target: T2, 2-5A-dependent ribonuclease (Mus musculus, UniProt Q05921); test: Displacement of [125I]-labeled 2-5A from 2-5A dependent Ribonuclease L (RNase L) of mouse liver
T2 sequence (Q05921 whole entry): T1 sequence (whole entry)

SMILES	Relative activity [1]	IC50 [2]
Nc1ncnc2c1ncn2[C@@H]1O[C@H](COP(=O)(O)O[C@@H]2[C@H](O)[C@@H](COP(=O)(O)O[C@@H]3[C@H](O)[C@@H](COP(=O)(O)OP(=O)(O)OP(=O)(O)O)O[C@H]3n3cnc4c(N)ncnc43)O[C@H]2n2cnc3c(N)ncnc32)[C@@H](O)[C@H]1O	1.3	
[N-]=[N+]=Nc1nc2c(N)ncnc2n1[C@@H]1O[C@H](COP(=O)(O)O[C@@H]2[C@H](O)[C@@H](COP(=O)(O)O[C@@H]3[C@H](O)[C@@H](COP(=O)(O)O[C@@H]4[C@H](O)[C@@H](CO)O[C@H]4n4c(N=[N+]=[N-])nc5c(N)ncnc54)O[C@H]3n3c(N=[N+]=[N-])nc4c(N)ncnc43)O[C@H]2n2c(N=[N+]=[N-])nc3c(N)ncnc32)[C@@H](O)[C@H]1O	0.8	50 nM
[N-]=[N+]=Nc1nc2c(N)ncnc2n1[C@@H]1O[C@H](COP(=O)(O)O[C@@H]2[C@H](O)[C@@H](COP(=O)(O)O[C@@H]3[C@H](O)[C@@H](COP(=O)(O)O[C@@H]4[C@H](O)[C@@H](COP(=O)(O)O)O[C@H]4n4c(N=[N+]=[N-])nc5c(N)ncnc54)O[C@H]3n3c(N=[N+]=[N-])nc4c(N)ncnc43)O[C@H]2n2c(N=[N+]=[N-])nc3c(N)ncnc32)[C@@H](O)[C@H]1O	2	2 nM
Nc1ncnc2c1nc(N)n2C1O[C@H](COP(=O)(O)O[C@H]2C(n3c(N)nc4c(N)ncnc43)O[C@H](COP(=O)(O)O[C@H]3C(n4c(N)nc5c(N)ncnc54)O[C@H](COP(=O)(O)O[C@H]4C(n5c(N)nc6c(N)ncnc65)O[C@H](COP(=O)(O)O)[C@H]4O)[C@H]3O)[C@H]2O)[C@@H](O)[C@H]1O (stereo partly specified)	0.008	500 nM
Nc1ncnc2c1ncn2[C@@H]1O[C@H](CO[P@](=O)(O)O[C@@H]2[C@H](O)[C@@H](CO[P@](=O)(O)O[C@@H]3[C@H](O)[C@@H](CO[P@](=O)(O)O[P@@](=O)(O)OP(=O)(O)O)O[C@H]3n3cnc4c(N)ncnc43)O[C@H]2n2cnc3c(N)ncnc32)[C@@H](O)[C@H]1O		3 nM
[N-]=[N+]=Nc1nc2c(N)ncnc2n1C1O[C@H](COP(=O)(O)O[C@H]2C(n3c(N=[N+]=[N-])nc4c(N)ncnc43)O[C@H](CO)[C@H]2O)[C@@H](O)[C@H]1O (stereo partly specified)	< 0.0004	> 10000 nM

Second part, the compound after the results:

Relative activity [1]	IC50 [2]	SMILES
< 0.0004	> 10000 nM	Nc1ncnc2c1nc(N)n2C1O[C@H](COP(=O)(O)O[C@H]2C(n3c(N)nc4c(N)ncnc43)O[C@H](CO)[C@H]2O)[C@@H](O)[C@H]1O (stereo partly specified)
< 0.0004	> 10000 nM	Nc1ncnc2c1nc(N)n2C1O[C@H](COP(=O)(O)O[C@H]2C(n3c(N)nc4c(N)ncnc43)O[C@H](COP(=O)(O)O)[C@H]2O)[C@@H](O)[C@H]1O (stereo partly specified)
0.0008	5000 nM	[N-]=[N+]=Nc1nc2c(N)ncnc2n1C1O[C@H](COP(=O)(O)O[C@H]2C(n3c(N=[N+]=[N-])nc4c(N)ncnc43)O[C@H](COP(=O)(O)O)[C@H]2O)[C@@H](O)[C@H]1O (stereo partly specified)
< 0.0004	> 10000 nM	Nc1ncnc2c1nc(N)n2[C@@H]1O[C@H](COP(=O)(O)O[C@@H]2[C@H](O)[C@@H](COP(=O)(O)O[C@@H]3[C@H](O)[C@@H](CO)O[C@H]3n3c(N)nc4c(N)ncnc43)O[C@H]2n2c(N)nc3c(N)ncnc32)[C@@H](O)[C@H]1O
0.004	1000 nM	Nc1ncnc2c1nc(N)n2[C@@H]1O[C@H](COP(=O)(O)O[C@@H]2[C@H](O)[C@@H](COP(=O)(O)O[C@@H]3[C@H](O)[C@@H](COP(=O)(O)O[C@@H]4[C@H](O)[C@@H](CO)O[C@H]4n4c(N)nc5c(N)ncnc54)O[C@H]3n3c(N)nc4c(N)ncnc43)O[C@H]2n2c(N)nc3c(N)ncnc32)[C@@H](O)[C@H]1O
< 0.0004	> 10000 nM	Nc1ncnc2c1nc(N)n2[C@@H]1O[C@H](COP(=O)(O)O[C@@H]2[C@H](O)[C@@H](COP(=O)(O)O[C@@H]3[C@H](O)[C@@H](COP(=O)(O)O)O[C@H]3n3c(N)nc4c(N)ncnc43)O[C@H]2n2c(N)nc3c(N)ncnc32)[C@@H](O)[C@H]1O
0.6	70 nM	[N-]=[N+]=Nc1nc2c(N)ncnc2n1C1O[C@H](COP(=O)(O)O[C@H]2C(n3c(N=[N+]=[N-])nc4c(N)ncnc43)OC(COP(=O)(O)O[C@H]3C(n4c(N=[N+]=[N-])nc5c(N)ncnc54)O[C@H](CO)[C@H]3O)[C@H]2O)[C@@H](O)[C@H]1O (stereo partly specified)
2	2 nM	[N-]=[N+]=Nc1nc2c(N)ncnc2n1C1OC(COP(=O)(O)O)C(O)C1OP(=O)(O)OCC1OC(n2c(N=[N+]=[N-])nc3c(N)ncnc32)C(OP(=O)(O)OC[C@H]2OC(n3c(N=[N+]=[N-])nc4c(N)ncnc43)[C@H](O)[C@@H]2O)C1O (stereo partly specified)
